Organism: Rattus norvegicus
Experiment: Open TG-GATES - Regimen: Single
Format: toxicity, organism-based, Sprague-Dawley
Parameters: regimen Single, gender Male, age 6 weeks
Conditions: in vivo, po, 100 mg/kg, route gavage, dose level Low; for APTT / Bas / Eos / Fbg / Hb / Ht / Lym / MCH / MCHC / MCV / Mono / Neu / PT / Plat / RBC / Ret / WBC: tissue Blood; for KIDNEY_L / KIDNEY_R / KIDNEY_TOTAL: tissue Kidney; for LIVER: tissue Liver; for A/G / ALP / ALT / AST / BUN / CRE / Ca / Cl / DBIL / GLC / IP / K / LDH / Na / PL / RALB / TBIL / TC / TG / TP / gamma-GTP: tissue Plasma

SMILES: CCC1(c2ccccc2)C(=O)NC(=O)NC1=O [PHENOBARBITAL]
- TERMINAL_BW (3 h): 225.5 g
- APTT (3 h): 20.6 s
- Bas (3 h): 0%
- Eos (3 h): 1%
- Fbg (3 h): 220.6 mg/dL
- Hb (3 h): 13.7 g/dL
- Ht (3 h): 37.8%
- Lym (3 h): 76.6%
- MCH (3 h): 22.2 pg
- MCHC (3 h): 36.1%
- MCV (3 h): 61.3 fL
- Mono (3 h): 3.4%
- Neu (3 h): 18.2%
- PT (3 h): 12 s
- Plat (3 h): 126.2 x10_4/uL
- RBC (3 h): 616.6 x10_4/ul
- Ret (3 h): 7.8%
- WBC (3 h): 85.2 x10_2/uL
- KIDNEY_L (3 h): 1 g
- KIDNEY_R (3 h): 1 g
- KIDNEY_TOTAL (3 h): 2.1 g
- LIVER (3 h): 10.1 g
- A/G (3 h): 1.6
- ALP (3 h): 991 IU/L
- ALT (3 h): 33.4 IU/L
- AST (3 h): 67.4 IU/L
- BUN (3 h): 8.4 mg/dL
- CRE (3 h): 0.3 mg/dL
- Ca (3 h): 10.7 mg/dL
- Cl (3 h): 101.4 meq/L
- DBIL (3 h): 0.064 mg/dL
- GLC (3 h): 179.4 mg/dL
- IP (3 h): 9.7 mg/dL
- K (3 h): 4.4 meq/L
- LDH (3 h): 168.4 IU/L
- Na (3 h): 139.8 meq/L
- PL (3 h): 156.6 mg/dL
- RALB (3 h): 3.3 g/dL
- TBIL (3 h): 0.1 mg/dL
- TC (3 h): 83.4 mg/dL
- TG (3 h): 83.8 mg/dL
- TP (3 h): 5.3 g/dL
- gamma-GTP (3 h): 1 IU/L
- TERMINAL_BW (6 h): 222.4 g
- APTT (6 h): 18 s
- Bas (6 h): 0.2%
- Eos (6 h): 0.8%
- Fbg (6 h): 237.8 mg/dL
- Hb (6 h): 13.7 g/dL
- Ht (6 h): 37.9%
- Lym (6 h): 79.8%
- MCH (6 h): 21.4 pg
- MCHC (6 h): 36.2%
- MCV (6 h): 59 fL
- Mono (6 h): 3.4%
- Neu (6 h): 15%
- PT (6 h): 11.8 s
- Plat (6 h): 124.2 x10_4/uL
- RBC (6 h): 643 x10_4/ul
- Ret (6 h): 8.1%
- WBC (6 h): 90.7 x10_2/uL
- KIDNEY_L (6 h): 1 g
- KIDNEY_R (6 h): 0.9 g
- KIDNEY_TOTAL (6 h): 1.9 g
- LIVER (6 h): 9.4 g
- A/G (6 h): 1.6
- ALP (6 h): 1012 IU/L
- ALT (6 h): 31.8 IU/L
- AST (6 h): 64.8 IU/L
- BUN (6 h): 7.6 mg/dL
- CRE (6 h): 0.4 mg/dL
- Ca (6 h): 10.7 mg/dL
- Cl (6 h): 100.4 meq/L
- DBIL (6 h): 0.074 mg/dL
- GLC (6 h): 191.8 mg/dL
- IP (6 h): 10.1 mg/dL
- K (6 h): 3.9 meq/L
- LDH (6 h): 173.2 IU/L
- Na (6 h): 139.6 meq/L
- PL (6 h): 138.8 mg/dL
- RALB (6 h): 3.3 g/dL
- TBIL (6 h): 0.1 mg/dL
- TC (6 h): 71 mg/dL
- TG (6 h): 68.8 mg/dL
- TP (6 h): 5.5 g/dL
- gamma-GTP (6 h): 0.8 IU/L
- TERMINAL_BW (9 h): 220.3 g
- APTT (9 h): 19.6 s
- Bas (9 h): 0.4%
- Eos (9 h): 0.8%
- Fbg (9 h): 215.6 mg/dL
- Hb (9 h): 13.8 g/dL
- Ht (9 h): 38.2%
- Lym (9 h): 74.6%
- MCH (9 h): 21.6 pg
- MCHC (9 h): 36.2%
- MCV (9 h): 59.6 fL
- Mono (9 h): 2.6%
- Neu (9 h): 20.6%
- PT (9 h): 12.4 s
- Plat (9 h): 124.9 x10_4/uL
- RBC (9 h): 640.6 x10_4/ul
- Ret (9 h): 7.4%
- WBC (9 h): 90 x10_2/uL
- KIDNEY_L (9 h): 1 g
- KIDNEY_R (9 h): 1 g
- KIDNEY_TOTAL (9 h): 1.9 g
- LIVER (9 h): 9.2 g
- A/G (9 h): 1.6
- ALP (9 h): 848.2 IU/L
- ALT (9 h): 25.2 IU/L
- AST (9 h): 60.4 IU/L
- BUN (9 h): 10.4 mg/dL
- CRE (9 h): 0.3 mg/dL
- Ca (9 h): 10.4 mg/dL
- Cl (9 h): 101 meq/L
- DBIL (9 h): 0.064 mg/dL
- GLC (9 h): 196.4 mg/dL
- IP (9 h): 8.7 mg/dL
- K (9 h): 3.9 meq/L
- LDH (9 h): 154.4 IU/L
- Na (9 h): 140.4 meq/L
- PL (9 h): 129.8 mg/dL
- RALB (9 h): 3.4 g/dL
- TBIL (9 h): 0.1 mg/dL
- TC (9 h): 64.4 mg/dL
- TG (9 h): 55.6 mg/dL
- TP (9 h): 5.5 g/dL
- gamma-GTP (9 h): 0.6 IU/L
- TERMINAL_BW (24 h): 234.5 g
- APTT (24 h): 21 s
- Bas (24 h): 0.8%
- Eos (24 h): 1%
- Fbg (24 h): 217.8 mg/dL
- Hb (24 h): 13.5 g/dL
- Ht (24 h): 37.2%
- Lym (24 h): 77.8%
- MCH (24 h): 22.2 pg
- MCHC (24 h): 36.2%
- MCV (24 h): 61.3 fL
- Mono (24 h): 2.6%
- Neu (24 h): 17.8%
- PT (24 h): 11.8 s
- Plat (24 h): 122.9 x10_4/uL
- RBC (24 h): 607.6 x10_4/ul
- Ret (24 h): 6.6%
- WBC (24 h): 114.9 x10_2/uL
- KIDNEY_L (24 h): 1.1 g
- KIDNEY_R (24 h): 1.1 g
- KIDNEY_TOTAL (24 h): 2.3 g
- LIVER (24 h): 12 g
- A/G (24 h): 1.6
- ALP (24 h): 1006.8 IU/L
- ALT (24 h): 39 IU/L
- AST (24 h): 70.6 IU/L
- BUN (24 h): 14.4 mg/dL
- CRE (24 h): 0.4 mg/dL
- Ca (24 h): 10.8 mg/dL
- Cl (24 h): 102.4 meq/L
- DBIL (24 h): 0.062 mg/dL
- GLC (24 h): 183.4 mg/dL
- IP (24 h): 7.3 mg/dL
- K (24 h): 3.8 meq/L
- LDH (24 h): 181.4 IU/L
- Na (24 h): 142 meq/L
- PL (24 h): 132.6 mg/dL
- RALB (24 h): 3.4 g/dL
- TBIL (24 h): 0.1 mg/dL
- TC (24 h): 64 mg/dL
- TG (24 h): 105.4 mg/dL
- TP (24 h): 5.6 g/dL
- gamma-GTP (24 h): 0.8 IU/L
